# Key:
# [1] = target: Receptor-type tyrosine-protein kinase FLT3 (Homo sapiens, UniProt P36888, ITD); test: biochemical; assay type: cell-based, Sf9
# MV4-11 = test: Antiproliferative activity against human MV4-11 cells harboring homozygous FLT3-ITD mutant assessed as inhibition of cell growth incubated for 72 hrs by resazurin dye based fluorescence analysis; assay type: functional
# K562 = test: cells; details: Homo sapiens, K562, 72 h
# Description: Antiproliferative activity against FLT3-independent human K562 cells assessed as inhibition of cell growth incubated for 72 hrs by resazurin dye based fluorescence analysis
# MOLM-13 = test: cells; details: Homo sapiens, MOLM-13, 72 h
# Sequence of Receptor-type tyrosine-protein kinase FLT3 (P36888 whole entry, looked up, stated change not applied): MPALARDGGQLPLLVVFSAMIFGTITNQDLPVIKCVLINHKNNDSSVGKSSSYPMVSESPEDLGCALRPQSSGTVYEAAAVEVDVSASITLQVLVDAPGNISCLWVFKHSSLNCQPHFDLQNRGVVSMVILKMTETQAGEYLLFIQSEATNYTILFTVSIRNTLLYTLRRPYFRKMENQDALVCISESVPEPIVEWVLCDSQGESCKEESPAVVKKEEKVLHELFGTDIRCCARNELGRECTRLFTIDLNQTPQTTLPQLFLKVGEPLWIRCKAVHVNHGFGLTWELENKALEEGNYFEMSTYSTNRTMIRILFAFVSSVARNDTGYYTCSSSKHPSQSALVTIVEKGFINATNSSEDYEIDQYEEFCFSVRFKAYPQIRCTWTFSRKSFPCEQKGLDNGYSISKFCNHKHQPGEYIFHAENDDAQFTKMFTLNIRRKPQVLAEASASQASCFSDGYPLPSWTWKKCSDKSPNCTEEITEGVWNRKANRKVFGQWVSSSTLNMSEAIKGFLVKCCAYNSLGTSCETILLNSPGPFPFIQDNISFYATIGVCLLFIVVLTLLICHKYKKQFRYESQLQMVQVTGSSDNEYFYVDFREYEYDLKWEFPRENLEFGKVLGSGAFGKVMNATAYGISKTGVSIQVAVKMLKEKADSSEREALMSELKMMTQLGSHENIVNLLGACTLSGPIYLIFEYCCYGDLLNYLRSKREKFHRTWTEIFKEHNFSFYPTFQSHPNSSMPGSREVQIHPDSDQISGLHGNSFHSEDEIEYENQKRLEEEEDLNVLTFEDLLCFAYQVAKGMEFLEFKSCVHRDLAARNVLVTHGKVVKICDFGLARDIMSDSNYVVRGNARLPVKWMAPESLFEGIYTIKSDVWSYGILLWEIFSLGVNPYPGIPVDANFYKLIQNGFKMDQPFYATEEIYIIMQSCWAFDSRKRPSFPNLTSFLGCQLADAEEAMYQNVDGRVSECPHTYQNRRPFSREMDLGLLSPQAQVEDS
smiles,measurement,setting,value
O=C(Nc1ccc(Cl)cc1)Nc1nnc(Sc2ncnc3oc(-c4ccccc4)cc23)s1,IC50,[1],9 nM
same,GI50,MV4-11,430 nM
same,GI50,K562,> 10000 nM
same,GI50,MOLM-13,297 nM
O=C(Nc1ccc(Cl)c(Cl)c1)Nc1nnc(Sc2ncnc3oc(-c4ccccc4)c(-c4ccccc4)c23)s1,IC50,[1],455 nM
same,GI50,MV4-11,6190 nM
same,GI50,K562,> 10000 nM
same,GI50,MOLM-13,8660 nM
Cc1ccc(NC(=O)Nc2nnc(Sc3ncnc4oc(-c5ccccc5)c(-c5ccccc5)c34)s2)cc1,IC50,[1],5 nM
same,GI50,MV4-11,134 nM
same,GI50,K562,> 10000 nM
same,GI50,MOLM-13,194 nM
Cc1cccc(NC(=O)Nc2nnc(Sc3ncnc4oc(-c5ccccc5)c(-c5ccccc5)c34)s2)c1,IC50,[1],10 nM
same,GI50,MV4-11,115 nM
same,GI50,K562,> 10000 nM
same,GI50,MOLM-13,120 nM
O=C(Nc1ccc(Cl)c(C(F)(F)F)c1)Nc1nnc(Sc2ncnc3oc(-c4ccccc4)cc23)s1,IC50,[1],3 nM
same,GI50,MV4-11,910 nM
same,GI50,K562,> 10000 nM
same,GI50,MOLM-13,1220 nM
O=C(Nc1ccc(Cl)c(C(F)(F)F)c1)Nc1nnc(Sc2ncnc3oc(-c4ccccc4)c(-c4ccccc4)c23)s1,IC50,[1],1270 nM
same,GI50,MV4-11,8300 nM
same,GI50,K562,> 10000 nM
same,GI50,MOLM-13,> 10000 nM
COc1cccc(NC(=O)Nc2nnc(Sc3ncnc4oc(-c5ccccc5)c(-c5ccccc5)c34)s2)c1,IC50,[1],4 nM
same,GI50,MV4-11,86 nM
same,GI50,K562,9950 nM
same,GI50,MOLM-13,185 nM
O=C(Nc1cccc(F)c1)Nc1nnc(Sc2ncnc3oc(-c4ccccc4)c(-c4ccccc4)c23)s1,IC50,[1],4 nM
same,GI50,MV4-11,145 nM
same,GI50,K562,> 10000 nM
same,GI50,MOLM-13,650 nM
O=C(Nc1cccc(Cl)c1)Nc1nnc(Sc2ncnc3oc(-c4ccccc4)cc23)s1,IC50,[1],10 nM
same,GI50,MV4-11,345 nM
same,GI50,K562,> 10000 nM
same,GI50,MOLM-13,240 nM
COc1ccc(-c2cc3c(Sc4nnc(NC(=O)Nc5cccc(Cl)c5)s4)ncnc3o2)cc1,IC50,[1],48 nM
same,GI50,MV4-11,1560 nM
same,GI50,K562,> 10000 nM
same,GI50,MOLM-13,1060 nM
COc1ccc(-c2cc3c(Sc4nnc(NC(=O)Nc5ccc(Cl)cc5)s4)ncnc3o2)cc1,IC50,[1],22 nM
same,GI50,MV4-11,1380 nM
same,GI50,K562,> 10000 nM
same,GI50,MOLM-13,1140 nM
O=C(Nc1nnc(Sc2ncnc3oc(-c4ccccc4)c(-c4ccccc4)c23)s1)Nc1ccccc1Br,IC50,[1],4 nM
same,GI50,MV4-11,290 nM
same,GI50,K562,> 10000 nM
same,GI50,MOLM-13,427 nM
COc1ccc(-c2cc3c(Sc4nnc(NC(=O)Nc5ccc(Cl)c(C(F)(F)F)c5)s4)ncnc3o2)cc1,IC50,[1],55 nM
same,GI50,MV4-11,> 10000 nM
same,GI50,K562,> 10000 nM
same,GI50,MOLM-13,5820 nM
Cc1cccc(NC(=O)Nc2nnc(Sc3ncnc4oc(-c5ccccc5)cc34)s2)c1,IC50,[1],12 nM
same,GI50,MV4-11,133 nM
same,GI50,K562,> 10000 nM
same,GI50,MOLM-13,105 nM
O=C(Nc1cccc(F)c1)Nc1nnc(Sc2ncnc3oc(-c4ccccc4)cc23)s1,IC50,[1],56 nM
same,GI50,MV4-11,337 nM
same,GI50,K562,7960 nM
same,GI50,MOLM-13,190 nM
Cc1ccc(NC(=O)Nc2nnc(Sc3ncnc4oc(-c5ccccc5)c(-c5ccccc5)c34)s2)cc1Cl,IC50,[1],> 5000 nM
same,GI50,MV4-11,> 10000 nM
same,GI50,K562,> 10000 nM
same,GI50,MOLM-13,> 10000 nM
O=C(Nc1ccccc1)Nc1nnc(Sc2ncnc3oc(-c4ccccc4)cc23)s1,IC50,[1],38 nM
same,GI50,MV4-11,165 nM
same,GI50,K562,> 10000 nM
same,GI50,MOLM-13,87 nM
O=C(Nc1ccc(Br)cc1)Nc1nnc(Sc2ncnc3oc(-c4ccccc4)cc23)s1,IC50,[1],3 nM
same,GI50,MV4-11,1190 nM
same,GI50,K562,> 10000 nM
same,GI50,MOLM-13,570 nM
O=C(Nc1ccccc1)Nc1nnc(Sc2ncnc3oc(-c4ccccc4)c(-c4ccccc4)c23)s1,IC50,[1],4 nM
same,GI50,MV4-11,74 nM
same,GI50,K562,> 10000 nM
same,GI50,MOLM-13,110 nM
COc1cccc(NC(=O)Nc2nnc(Sc3ncnc4oc(-c5ccccc5)cc34)s2)c1,IC50,[1],17 nM
same,GI50,MV4-11,120 nM
same,GI50,K562,9460 nM
same,GI50,MOLM-13,79 nM
Cc1ccc(NC(=O)Nc2nnc(Sc3ncnc4oc(-c5ccccc5)cc34)s2)cc1Cl,IC50,[1],3 nM
same,GI50,MV4-11,430 nM
same,GI50,K562,9500 nM
same,GI50,MOLM-13,375 nM
O=C(Nc1ccc(Br)cc1)Nc1nnc(Sc2ncnc3oc(-c4ccccc4)c(-c4ccccc4)c23)s1,IC50,[1],55 nM
same,GI50,MV4-11,396 nM
same,GI50,K562,> 10000 nM
same,GI50,MOLM-13,723 nM
O=C(Nc1nnc(Sc2ncnc3oc(-c4ccccc4)c(-c4ccccc4)c23)s1)Nc1ccc(F)cc1F,IC50,[1],6 nM
same,GI50,MV4-11,169 nM
same,GI50,K562,> 10000 nM
same,GI50,MOLM-13,164 nM
COc1ccc(NC(=O)Nc2nnc(Sc3ncnc4oc(-c5ccc(OC)cc5)cc34)s2)cc1,IC50,[1],23 nM
same,GI50,MV4-11,250 nM
same,GI50,K562,> 10000 nM
same,GI50,MOLM-13,180 nM
O=C(Nc1cccc(Cl)c1)Nc1nnc(Sc2ncnc3oc(-c4ccccc4)c(-c4ccccc4)c23)s1,IC50,[1],14 nM
same,GI50,MV4-11,362 nM
same,GI50,K562,> 10000 nM
same,GI50,MOLM-13,404 nM
O=C(Nc1ccc(Cl)c(Cl)c1)Nc1nnc(Sc2ncnc3oc(-c4ccccc4)cc23)s1,IC50,[1],4 nM
same,GI50,MV4-11,1030 nM
same,GI50,K562,9830 nM
same,GI50,MOLM-13,710 nM
O=C(Nc1ccc(Cl)cc1)Nc1nnc(Sc2ncnc3oc(-c4ccccc4)c(-c4ccccc4)c23)s1,IC50,[1],16 nM
same,GI50,MV4-11,342 nM
same,GI50,K562,9860 nM
same,GI50,MOLM-13,452 nM
COc1ccc(NC(=O)Nc2nnc(Sc3ncnc4oc(-c5ccccc5)c(-c5ccccc5)c34)s2)cc1,IC50,[1],5 nM
same,GI50,MV4-11,61 nM
same,GI50,K562,> 10000 nM
same,GI50,MOLM-13,83 nM
COc1ccc(-c2cc3c(Sc4nnc(NC(=O)Nc5ccccc5)s4)ncnc3o2)cc1,IC50,[1],16 nM
same,GI50,MV4-11,96 nM
same,GI50,K562,> 10000 nM
same,GI50,MOLM-13,117 nM
